Test results published in PMC12155096 (International Journal of Molecular Sciences, 2025).
Counter-ions that a name gives are not always drawn. Like-named read-outs stand apart in the source and are kept apart here.

What was measured:
[1] = molecular target: T1, human CYP2D6 (Homo sapiens, UniProt P10635); test: biochemical
[2] = molecular target: CYP3A4 (Homo sapiens, UniProt P08684)
[3] = molecular target: Photinus pyralis (firefly) luciferase (Photinus pyralis, UniProt P08659); test: biochemical; assay type: biochemical
[4] = molecular target: T2, human CYP1A2 (Homo sapiens, UniProt P05177); test: biochemical
T2 sequence (P05177 1-516): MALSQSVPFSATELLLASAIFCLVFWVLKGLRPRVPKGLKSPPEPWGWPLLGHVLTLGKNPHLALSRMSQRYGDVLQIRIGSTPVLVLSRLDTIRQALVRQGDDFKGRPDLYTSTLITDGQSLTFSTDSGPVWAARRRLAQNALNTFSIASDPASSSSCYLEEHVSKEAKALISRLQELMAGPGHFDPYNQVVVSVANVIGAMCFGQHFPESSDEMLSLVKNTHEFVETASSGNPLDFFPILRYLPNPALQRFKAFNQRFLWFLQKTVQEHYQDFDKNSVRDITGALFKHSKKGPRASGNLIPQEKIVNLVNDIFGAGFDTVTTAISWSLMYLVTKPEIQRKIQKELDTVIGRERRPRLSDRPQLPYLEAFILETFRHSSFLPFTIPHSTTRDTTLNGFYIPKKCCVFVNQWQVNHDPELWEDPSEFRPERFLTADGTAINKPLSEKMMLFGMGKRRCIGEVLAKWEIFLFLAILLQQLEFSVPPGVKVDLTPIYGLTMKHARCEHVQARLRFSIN

[5] = molecular target: T3, human CYP2C9 (Homo sapiens, UniProt P11712); details: for CYP2C9 Efficacy (in parenthesis): human
[6] = molecular target: T4, human CYP2C19 (Homo sapiens, UniProt P33261); details: for CYP2C19 Efficacy (in parenthesis): human
[7] = molecular target: T1, human CYP2D6
[8] = molecular target: T4, human CYP2C19; test: biochemical
[9] = molecular target: T2, human CYP1A2; details: for CYP1A2 Efficacy (in parenthesis): human
[10] = molecular target: T3, human CYP2C9; test: biochemical
[11] = CYP2D6 AC50 (half-maximal activity concentration)
[12] = CYP2D6 IC50 (half-maximal inhibitory concentration)
[13] = CYP2C19 IC50 (half-maximal inhibitory concentration)
[14] = CYP1A2 IC50 (half-maximal inhibitory concentration)
[15] = CYP2C9 IC50 (half-maximal inhibitory concentration)

T1 sequence (P10635 whole entry): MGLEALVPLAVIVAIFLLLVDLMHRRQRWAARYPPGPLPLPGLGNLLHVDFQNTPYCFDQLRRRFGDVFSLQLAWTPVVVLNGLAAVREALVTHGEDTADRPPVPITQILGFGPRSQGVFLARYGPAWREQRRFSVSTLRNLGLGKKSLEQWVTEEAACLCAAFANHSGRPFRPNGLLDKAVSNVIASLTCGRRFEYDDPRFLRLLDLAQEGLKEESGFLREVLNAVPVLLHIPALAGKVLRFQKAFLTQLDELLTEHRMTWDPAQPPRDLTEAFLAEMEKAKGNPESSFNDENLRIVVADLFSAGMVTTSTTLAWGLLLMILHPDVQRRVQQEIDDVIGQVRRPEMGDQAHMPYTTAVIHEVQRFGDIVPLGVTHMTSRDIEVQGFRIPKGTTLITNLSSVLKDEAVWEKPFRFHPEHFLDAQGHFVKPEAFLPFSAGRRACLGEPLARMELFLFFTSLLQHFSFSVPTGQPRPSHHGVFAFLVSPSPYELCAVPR
Photinus pyralis (firefly) luciferase, sequence (P08659 whole entry): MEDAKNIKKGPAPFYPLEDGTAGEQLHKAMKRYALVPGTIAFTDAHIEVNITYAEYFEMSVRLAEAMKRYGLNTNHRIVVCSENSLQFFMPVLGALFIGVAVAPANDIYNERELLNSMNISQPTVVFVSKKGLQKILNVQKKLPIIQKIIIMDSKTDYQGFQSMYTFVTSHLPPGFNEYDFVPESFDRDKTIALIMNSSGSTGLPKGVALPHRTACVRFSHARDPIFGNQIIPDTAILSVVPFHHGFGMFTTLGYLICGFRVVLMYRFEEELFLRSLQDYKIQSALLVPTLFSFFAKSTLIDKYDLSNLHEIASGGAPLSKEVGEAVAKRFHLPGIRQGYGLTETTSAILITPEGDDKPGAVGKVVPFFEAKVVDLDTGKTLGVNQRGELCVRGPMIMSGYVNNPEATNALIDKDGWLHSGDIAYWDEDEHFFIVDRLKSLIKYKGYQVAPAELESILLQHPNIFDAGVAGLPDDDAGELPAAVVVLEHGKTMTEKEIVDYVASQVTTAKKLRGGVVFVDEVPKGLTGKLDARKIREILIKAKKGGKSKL
T4 sequence (P33261 whole entry): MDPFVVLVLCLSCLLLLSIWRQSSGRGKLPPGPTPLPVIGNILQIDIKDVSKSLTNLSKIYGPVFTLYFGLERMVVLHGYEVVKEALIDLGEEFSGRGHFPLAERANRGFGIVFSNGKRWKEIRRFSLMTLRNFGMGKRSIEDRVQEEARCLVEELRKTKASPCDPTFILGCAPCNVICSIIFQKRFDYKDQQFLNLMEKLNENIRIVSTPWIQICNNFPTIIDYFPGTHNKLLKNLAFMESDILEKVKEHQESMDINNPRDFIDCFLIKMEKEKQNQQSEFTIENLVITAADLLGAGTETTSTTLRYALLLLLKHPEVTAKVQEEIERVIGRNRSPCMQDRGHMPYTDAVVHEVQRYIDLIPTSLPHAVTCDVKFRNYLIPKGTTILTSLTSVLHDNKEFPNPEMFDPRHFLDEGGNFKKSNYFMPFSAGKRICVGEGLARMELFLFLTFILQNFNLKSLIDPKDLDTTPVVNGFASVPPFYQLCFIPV
CYP3A4, sequence (P08684 whole entry): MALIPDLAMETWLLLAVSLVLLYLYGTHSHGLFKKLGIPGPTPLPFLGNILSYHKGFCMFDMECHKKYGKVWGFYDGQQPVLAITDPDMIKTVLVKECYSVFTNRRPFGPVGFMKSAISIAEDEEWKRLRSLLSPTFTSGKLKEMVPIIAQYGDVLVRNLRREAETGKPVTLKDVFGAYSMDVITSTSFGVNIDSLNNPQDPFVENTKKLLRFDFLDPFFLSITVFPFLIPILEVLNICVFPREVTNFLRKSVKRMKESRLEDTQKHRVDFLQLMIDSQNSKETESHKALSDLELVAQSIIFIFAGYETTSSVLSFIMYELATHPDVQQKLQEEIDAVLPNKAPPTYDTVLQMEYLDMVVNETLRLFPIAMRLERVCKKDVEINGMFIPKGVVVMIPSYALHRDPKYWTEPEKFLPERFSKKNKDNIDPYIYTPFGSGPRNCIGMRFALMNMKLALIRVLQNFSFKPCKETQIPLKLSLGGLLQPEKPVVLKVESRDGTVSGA
T3 sequence (P11712 whole entry): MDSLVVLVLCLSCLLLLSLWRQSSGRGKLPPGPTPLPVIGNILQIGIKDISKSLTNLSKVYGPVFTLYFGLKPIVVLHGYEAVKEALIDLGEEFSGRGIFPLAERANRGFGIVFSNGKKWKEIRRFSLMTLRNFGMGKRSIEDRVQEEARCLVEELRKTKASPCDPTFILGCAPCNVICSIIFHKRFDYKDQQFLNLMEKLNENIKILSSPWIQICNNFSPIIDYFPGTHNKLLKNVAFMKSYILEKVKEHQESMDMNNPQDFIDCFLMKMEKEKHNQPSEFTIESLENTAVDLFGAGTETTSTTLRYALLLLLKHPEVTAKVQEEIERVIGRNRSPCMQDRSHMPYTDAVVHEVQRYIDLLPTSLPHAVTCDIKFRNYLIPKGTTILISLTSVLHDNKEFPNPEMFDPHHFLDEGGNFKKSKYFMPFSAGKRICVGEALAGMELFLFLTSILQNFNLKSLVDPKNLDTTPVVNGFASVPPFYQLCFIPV

COc1ccccc1N1CCN(CCCNc2cc(=O)n(C)c(=O)n2C)CC1 [Urapidil hydrochloride]
AC50 [1, 11]: 14000 nM

Cc1nc(N)nc(N)c1-c1ccc(Cl)c(Cl)c1 [Methodichlorophen]
AC50 [1]: 2300 ± 410 nM

CCOc1ccccc1OCCN[C@H](C)Cc1ccc(OC)c(S(N)(=O)=O)c1 [Tamsulosin hydrochloride]
IC50 [1, 12]: 12800 nM

OC(CN1CCC(Cc2ccc(F)cc2)CC1)c1ccc(Cl)cc1 (stereo not shown) [Eliprodil]
AC50 [1, 11]: 120 nM
IC50 [1, 12]: 120 nM

CC(CN(C)C)CN1c2ccccc2CCc2ccccc21 (stereo not shown) [trimipramine, reference compound]
IC50 ([1]; IC50 CYP2D6 assay): 3100 nM

CC[N+](C)(CC)CCOC(=O)C(O)(c1ccccc1)C1CCCCC1 (stereo not shown) [Oxyphenonium bromide]
IC50 [1, 12]: 870 nM

CC(C)(Cc1c[nH]c2ccccc12)NCC(O)COc1ccccc1C#N (stereo not shown) [Bucindolol]
CYP3A4 IC50 (half-maximal inhibitory concentration) [2]: Inactive
Luciferase IC50 (half-maximal inhibitory concentration) [3]: Inactive
IC50 [4]: 29200 ± 2380 nM
CYP2C9 IC50 (half-maximal inhibitory concentration) [5]: Inactive
CYP2C19 IC50 (half-maximal inhibitory concentration) [6]: Inactive

O=C1c2ccccc2C(=O)c2cc(Cl)ccc21 [2-Chloroanthraquinone]
CYP3A4 IC50 (half-maximal inhibitory concentration) [2]: Inactive
Luciferase IC50 (half-maximal inhibitory concentration) [3]: Inactive
IC50 [4]: 110 ± 30 nM
CYP2C9 IC50 (half-maximal inhibitory concentration) [5]: Inactive
CYP2C19 IC50 (half-maximal inhibitory concentration) [6]: Inactive
CYP2D6 IC50 (half-maximal inhibitory concentration) [7]: Inactive

c1cc2ccc3ccc4ccc5cccc6c(c1)c2c3c4c56 [Benzo(g,h,i)perylene]
CYP3A4 IC50 [2]: Inactive
Luciferase IC50 [3]: Inactive
IC50 ([4]; CYP1A2 IC50): 160 nM
CYP2C9 IC50 [5]: Inactive
CYP2C19 IC50 [6]: Inactive
CYP2D6 IC50 [7]: Inactive

c1ccc2nc(N3CCNCC3)ccc2c1 [Quipazine maleate]
CYP3A4 IC50 [2]: Inactive
Luciferase IC50 [3]: Inactive
IC50 ([4]; CYP1A2 IC50): 960 nM
CYP2C9 IC50 [5]: Inactive
CYP2C19 IC50 [6]: Inactive
CYP2D6 IC50 [7]: Inactive

c1ccc2cc3c(cc2c1)-c1cccc2cccc-3c12 [Benzo(k)fluoranthene]
CYP3A4 IC50 [2]: Inactive
Luciferase IC50 [3]: Inactive
IC50 ([4]; CYP1A2 IC50): 170 nM
CYP2C9 IC50 [5]: Inactive
CYP2C19 IC50 [6]: Inactive
CYP2D6 IC50 [7]: Inactive

CC[N+](CC)(CC)CCOc1ccc(/C=C/c2ccccc2)cc1 [Stilonium iodide]
AC50 [1, 11]: 15500 nM

Brc1cc2ccccc2c2ccccc12 [9-Bromophenanthrene]
CYP3A4 IC50 (half-maximal inhibitory concentration) [2]: Inactive
IC50 [8, 13]: 29.4 µM
Luciferase IC50 (half-maximal inhibitory concentration) [3]: Inactive
IC50 [4, 14]: 320 nM
CYP1A2 Efficacy (in parenthesis) [9]: 0.32 ± 0.09 (-101 ± 1) %
CYP2C9 Efficacy (in parenthesis) [5]: 56.84 ± 0 (-53 ± 6) %
IC50 [10, 15]: 56.8 µM
CYP2C19 Efficacy (in parenthesis) [6]: 29.42 ± 9.47 (-107 ± 13) %
CYP2D6 IC50 (half-maximal inhibitory concentration) [7]: Inactive

c1ccc2cc3ccccc3cc2c1 [Anthracene]
CYP3A4 IC50 [2]: Inactive
IC50 ([8]; CYP2C19 IC50): 67 µM
Luciferase IC50 [3]: Inactive
IC50 ([4]; CYP1A2 IC50): 500 nM
CYP2C9 IC50 [5]: Inactive
CYP2D6 IC50 [7]: Inactive

CCN(CC)CCN1C(=O)CN=C(c2ccccc2F)c2cc(Cl)ccc21 [Flurazepam]
IC50 [1, 12]: 15600 nM

O=C1c2ccccc2C(=O)c2ccccc21 [Anthraquinone]
CYP3A4 IC50 (half-maximal inhibitory concentration) [2]: Inactive
Luciferase IC50 (half-maximal inhibitory concentration) [3]: Inactive
IC50 [4, 14]: 230 nM
CYP1A2 Efficacy (in parenthesis) [9]: 0.23 ± 0.06 (-96 ± 3) %
CYP2C9 IC50 (half-maximal inhibitory concentration) [5]: Inactive
CYP2C19 IC50 (half-maximal inhibitory concentration) [6]: Inactive
CYP2D6 IC50 (half-maximal inhibitory concentration) [7]: Inactive

c1ccc2c(c1)ccc1c3ccccc3ccc21 [Chrysene]
CYP3A4 IC50 [2]: Inactive
Luciferase IC50 [3]: Inactive
IC50 ([4]; CYP1A2 IC50): 650 nM
CYP2C9 IC50 [5]: Inactive
CYP2C19 IC50 [6]: Inactive
CYP2D6 IC50 [7]: Inactive

Brc1c2ccccc2c(Br)c2ccccc12 [9,10-Dibromoanthracene]
CYP3A4 IC50 (half-maximal inhibitory concentration) [2]: Inactive
Luciferase IC50 (half-maximal inhibitory concentration) [3]: Inactive
IC50 [4, 14]: 410 nM
CYP1A2 Efficacy (in parenthesis) [9]: 0.41 ± 0.27 (-85 ± 6) %
CYP2C9 IC50 (half-maximal inhibitory concentration) [5]: Inactive
CYP2C19 IC50 (half-maximal inhibitory concentration) [6]: Inactive
CYP2D6 IC50 (half-maximal inhibitory concentration) [7]: Inactive

CCN(CC)C(=O)SCc1ccc(Cl)cc1 [Thiobencarb]
CYP3A4 IC50 (half-maximal inhibitory concentration) [2]: Inactive
IC50 [8, 13]: 0.66 µM
IC50 [3]: 38.5 µM
IC50 [4, 14]: 15900 nM
CYP1A2 Efficacy (in parenthesis) [9]: 15.89 ± 0 (-91 ± 6) %
CYP2C9 Efficacy (in parenthesis) [5]: 25.18 ± 0 (-91 ± 2) %
IC50 [10, 15]: 25.2 µM
CYP2C19 Efficacy (in parenthesis) [6]: 0.66 ± 0.12 (-124 ± 7) %
CYP2D6 IC50 (half-maximal inhibitory concentration) [7]: Inactive

Brc1c(Br)c(Br)c(Br)c(Br)c1Br [Hexabromobenzene]
CYP3A4 IC50 (half-maximal inhibitory concentration) [2]: Inactive
Luciferase IC50 (half-maximal inhibitory concentration) [3]: Inactive
IC50 [4, 14]: 90 nM
CYP1A2 Efficacy (in parenthesis) [9]: 0.09 ± 0.01 (-45 ± 9) %
CYP2C9 IC50 (half-maximal inhibitory concentration) [5]: Inactive
CYP2C19 IC50 (half-maximal inhibitory concentration) [6]: Inactive
CYP2D6 IC50 (half-maximal inhibitory concentration) [7]: Inactive

CC1CCCC(C)N1CCCC(O)(c1ccccc1)c1ccccn1 (stereo not shown) [Pirmenol]
IC50 [1, 12]: 920 nM

c1ccc2c(c1)cc1ccc3cccc4ccc2c1c34 [Benzo(a)pyrene]
CYP3A4 IC50 [2]: Inactive
IC50 [3]: 16.4 µM
IC50 ([4]; CYP1A2 IC50): 300 nM
IC50 ([10]; CYP2C9 IC50): 23.4 µM
CYP2C19 IC50 [6]: Inactive
CYP2D6 IC50 [7]: Inactive

CC[C@@H]([C@H](C)O)n1ncn(-c2ccc(N3CCN(c4ccc(OC[C@@H]5CO[C@@](Cn6cncn6)(c6ccc(F)cc6F)C5)cc4)CC3)cc2)c1=O [Posaconazole]
IC50 [1]: 11300 ± 3600 nM

c1ccc2cc3c4ccccc4c4ccccc4c3cc2c1 [Dibenz[a,c]anthracene]
CYP3A4 IC50 [2]: Inactive
Luciferase IC50 [3]: Inactive
IC50 ([4]; CYP1A2 IC50): 210 nM
CYP2C9 IC50 [5]: Inactive
CYP2C19 IC50 [6]: Inactive
CYP2D6 IC50 [7]: Inactive

Nc1c(Br)cc(Br)c2c1C(=O)c1ccccc1C2=O [1-Amino-2,4-dibromoanthraquinone]
CYP3A4 IC50 (half-maximal inhibitory concentration) [2]: Inactive
Luciferase IC50 (half-maximal inhibitory concentration) [3]: Inactive
IC50 [4, 14]: 140 nM
CYP1A2 Efficacy (in parenthesis) [9]: 0.14 ± 0.03 (-99 ± 12) %
CYP2C9 IC50 (half-maximal inhibitory concentration) [5]: Inactive
CYP2C19 IC50 (half-maximal inhibitory concentration) [6]: Inactive
CYP2D6 IC50 (half-maximal inhibitory concentration) [7]: Inactive

ClC(Cl)=C(c1ccc(Cl)cc1)c1ccc(Cl)cc1 [p,p'-DDE]
CYP3A4 IC50 (half-maximal inhibitory concentration) [2]: Inactive
IC50 [8, 13]: 0.57 µM
Luciferase IC50 (half-maximal inhibitory concentration) [3]: Inactive
IC50 [4, 14]: 3650 nM
CYP1A2 Efficacy (in parenthesis) [9]: 3.65 ± 1.85 (-100 ± 2) %
CYP2C9 Efficacy (in parenthesis) [5]: 12.86 ± 6.41 (-84 ± 11) %
IC50 [10, 15]: 12.9 µM
CYP2C19 Efficacy (in parenthesis) [6]: 0.57 ± 0.14 (-135 ± 7) %
CYP2D6 IC50 (half-maximal inhibitory concentration) [7]: Inactive

CC(C)[N+](C)(CCOC(=O)C1c2ccccc2Oc2ccccc21)C(C)C [Propantheline bromide]
AC50 [1, 11]: 190 nM
IC50 [1, 12]: 90 nM

N#Cc1c2ccccc2cc2ccccc12 [9-Cyanoanthracene]
CYP3A4 IC50 [2]: Inactive
IC50 ([8]; CYP2C19 IC50): 16 µM
Luciferase IC50 [3]: Inactive
IC50 ([4]; CYP1A2 IC50): 220 nM
IC50 ([10]; CYP2C9 IC50): 6.16 µM
CYP2D6 IC50 [7]: Inactive

c1ccc2c(c1)-c1ccc3ccc4cccc5cc-2c1c3c45 [Indeno(1,2,3-cd)pyrene]
CYP3A4 IC50 (half-maximal inhibitory concentration) [2]: Inactive
IC50 [8, 13]: 15.5 µM
IC50 [3]: 12.9 µM
IC50 [4, 14]: 180 nM
IC50 [10, 15]: 5.5 µM
CYP2D6 IC50 (half-maximal inhibitory concentration) [7]: Inactive

Cl.OC(CNCC(O)C1CCc2cc(F)ccc2O1)C1CCc2cc(F)ccc2O1 (racemic) [rac Nebivolol hydrochloride]
AC50 [2]: 16.1 µM
CYP3A4 IC50 (half-maximal inhibitory concentration) [2]: 16.12 ± 1.09 (65 ± 10) µM
Luciferase IC50 (half-maximal inhibitory concentration) [3]: Inactive
CYP1A2 IC50 (half-maximal inhibitory concentration) [9]: Inactive
CYP2C9 IC50 (half-maximal inhibitory concentration) [5]: Inactive
CYP2C19 Efficacy [6]: 41.28 ± 3.36 (-60 ± 3) %
IC50 [6]: 41.3 µM
CYP2D6 Efficacy [7]: 0.25 ± 0.05 (-104 ± 2) %
IC50 [7]: 250 nM

Clc1ccc2c(c1)Nc1ccccc1S2 [2-Chlorophenothiazine]
CYP3A4 IC50 (half-maximal inhibitory concentration) [2]: Inactive
Luciferase IC50 (half-maximal inhibitory concentration) [3]: Inactive
IC50 [9]: 440 nM
CYP2C9 Efficacy [5]: 11.4 ± 3.88 (-60 ± 10) %
IC50 [6]: 7.85 µM
CYP2D6 IC50 (half-maximal inhibitory concentration) [7]: Inactive
